Results published in patent US7932271B2, “Heterocyclic methyl sulfone derivative” (Daiichi Pharmaceutical Co., Ltd., priority 2003, dated 2011).

Legend:
[1] = test system: β amyloid protein (Aβ) secreted by E35 cells (human glioma H4 cells transfected with APP751 gene); experiment: Inhibition of production or secretion of β-amyloid protein (Aβ) in E35 cells, sandwich ELISA of the supernatant; type: cell-based; details: 24 hours with test compound, compared to DMSO control cells, read-out: Activity (IC50, concentration at which 50% inhibition of Aβ production was observed)
Method: The inhibitory activity against formation of β amyloid protein of the compounds obtained in Examples was tested in the method described bellow.
E35 cells were established by transfecting APP751 gene which is a wild type human β-amyloid protein precursor into human glioma cells (H4 cells).
E35 cells were seeded in 96-well plates and cultured in an incubator of 37° C. by using a Dulbecco's Modified Eagle's Medium containing 10% inactivated fetal bovine serum (10% FBS-DMEM). Twenty-four hours after seeding, a test compound dissolved in DMSO so as to give its concentration to be 2000 times as much as that of the final concentration was added to the medium in an amount of 1/2000 capacity of the culture medium. The cells were cultured for additional twenty-four hours, and then the supernatant was collected. The amount of β amyloid protein (Aβ) secreted in the supernatant was measured by the sandwich enzyme-linked immunosorbent assay (ELISA). Described specifically, a monoclonal antibody 25-1, which recognized Aβ25-35, was immobilized onto a 96-well ELISA plate, followed by the incubation at 4° C. for 16 to 20 hours. After washing with a phosphate buffer (pH 7.4) (PBS), a biotinylated monoclonal antibody MA32-40, which recognized Aβ1-8, was added, and the plate was kept at 4° C. for 2 hours. After the supernatant was removed and the well was washed sufficiently with PBS, alkaline phosphatase-conjugated streptavidin was added to the plate. Absorbance was measured while adding BlouPhos (manufactured by KPL) as a substrate. An amount of Aβ contained in the supernatant was calculated using a calibration curve separately created using Aβ of a known concentration. IC50 of the test compound was presented as the concentration at which 50% inhibition of Aβ production was observed compared to the amount of Aβ of the control cells to which only DMSO was added.
When there is at least 10-times difference between the IC50 and the concentration at which cytotoxicity appears, then the compound is judged as a compound having an inhibitory activity against production or secretion of β amyloid protein.

With `CS(=O)(=O)Nc1cc(C(c2cc(C#N)ccc2F)S(=O)(=O)c2ccc(Cl)cc2)c(Cl)cn1` (stereo not drawn) [Example 236, N-[5-Chloro-4-[(4-chlorophenylsulfonyl)(5-cyano-2-fluorophenyl)methyl]pyridin-2-yl]methanesulfonamide] the melting point was 118 to 120 °C and the IC50 [1] was less than 5 nM.

For `Nc1cc(C(c2cc(F)ccc2F)S(=O)(=O)c2ccc(Cl)nc2)c(Cl)cn1` (stereo not drawn) [Example 245, [5-Chloro-4-[(6-chloropyridin-3-ylsulfonyl)(2,5-difluorophenyl)methyl]pyridin-2-yl]amine], the melting point was 157 to 158 °C and the IC50 [1] was 5 to 50 nM.

`COc1ccc(S(=O)(=O)C(c2cc(F)ccc2F)c2cc(N)ncc2Cl)cc1` (stereo not drawn) [Example 240, [5-Chloro-4-[(2,5-difluorophenyl)(4-methoxyphenylsulfonyl)methyl]pyridin-2-yl]amine] gave a melting point of 153 to 155 °C and an IC50 [1] of 5 to 50 nM.

In the case of `O=S(=O)(Cc1ccncc1)Nc1cc(C(c2cc(F)ccc2F)S(=O)(=O)c2ccc(Cl)cc2)c(Cl)cn1` (stereo not drawn) [Example 269, N-[5-Chloro-4-[(4-chlorophenylsulfonyl)(2,5-difluorophenyl)methyl]pyridin-2-yl]-1-pyridin-4-ylmethanesulfonamide], the melting point is reported as 257 °C (dec.) and the IC50 [1] is reported as less than 5 nM.

Compound `Nc1cc(C(c2cc(F)ccc2F)S(=O)(=O)c2ccc(F)c(F)c2)c(Cl)cn1` (stereo not drawn) [Example 247, [5-Chloro-4-[(2,5-difluorophenyl)(3,4-difluorophenylsulfonyl)methyl]pyridin-2-yl]amine] has a melting point of 140 to 141 °C and an IC50 [1] of less than 5 nM.

In the case of `COc1cc(S(=O)(=O)C(c2cc(F)ccc2F)c2cc(N)ncc2Cl)ccc1Cl` (stereo not drawn) [Example 239, [5-Chloro-4-[(4-chloro-3-methoxyphenylsulfonyl)(2,5-difluorophenyl)methyl]pyridin-2-yl]amine], the melting point is reported as 198 to 200 °C and the IC50 [1] is reported as 50 to 500 nM.

Compound `O=S(=O)(c1ccc(Cl)cc1)C(c1cc(F)ccc1F)c1cc(NS(=O)(=O)C(F)(F)F)ncc1Cl` (stereo not drawn) [Example 276, N-[5-Chloro-4-[(4-chlorophenylsulfonyl)(2,5-difluorophenyl)methyl]pyridin-2-yl]trifluoromethanesulfonamide] has a melting point of 221 to 223 °C and an IC50 [1] of 5 to 50 nM.

With `O=S(=O)(c1ccc(Cl)cc1)C(c1cc(F)ccc1F)c1cc(NCCO)ncc1Cl` (stereo not drawn) [Example 168, 2-[[5-Chloro-4-[(4-chlorophenylsulfonyl)-(2,5-difluorophenyl)methyl]pyridin-2-yl]amino]ethanol] the melting point was 168 to 169 °C and the IC50 [1] was less than 5 nM.

For `Nc1cc(C(c2cc(F)ccc2F)S(=O)(=O)c2ccc(Cl)c(F)c2)c(Cl)cn1` (stereo not drawn) [Example 251, [5-Chloro-4-[(4-chloro-3-fluorophenylsulfonyl)(2,5-difluorophenyl)methyl]pyridin-2-yl]amine], the melting point was 159 to 160 °C and the IC50 [1] was less than 5 nM.

`O=C(O)CCc1cc(C(c2cc(F)ccc2F)S(=O)(=O)c2ccc(Cl)cc2)c(Cl)cn1` (stereo not drawn) [Example 261, 3-[5-Chloro-4-[(4-chlorophenylsulfonyl)(2,5-difluorophenyl)methyl]pyridin-2-yl]propionic acid] gave a melting point of 194 to 196 °C and an IC50 [1] of 5 to 50 nM.

`O=S(=O)(CCN1CCOCC1)Nc1cc(C(c2cc(F)ccc2F)S(=O)(=O)c2ccc(Cl)cc2)c(Cl)cn1` (stereo not drawn) [Example 280, N-[5-Chloro-4-[(4-chlorophenylsulfonyl)(2,5-difluorophenyl)methyl]pyridin-2-yl]-2-morpholin-4-ylethanesulfonamide] gave a melting point of 219 to 221 °C and an IC50 [1] of less than 5 nM.

Compound `Nc1cc(C(c2cc(F)ccc2F)S(=O)(=O)c2ccc(Cl)cn2)c(Cl)cn1` (stereo not drawn) [Example 241, [5-Chloro-4-[(5-chloropyridin-2-ylsulfonyl)(2,5-difluorophenyl)methyl]pyridin-2-yl]amine] has a melting point of 187 to 189 °C and an IC50 [1] of 5 to 50 nM.

`CS(=O)(=O)Nc1cc(C(c2cc(F)ccc2F)S(=O)(=O)c2ccc(F)c(F)c2)c(Cl)cn1` (stereo not drawn) [Example 249, N-[5-Chloro-4-[(2,5-difluorophenyl)(3,4-difluorophenylsulfonyl)methyl]pyridin-2-yl]methanesulfonamide] gave a melting point of 118 to 120 °C and an IC50 [1] of less than 5 nM.

Work on `O=C(O)CCc1cc(C(c2cc(F)ccc2F)S(=O)(=O)c2ccc(Cl)cc2)c(F)cn1` (stereo not drawn) [Example 254, 3-[4-[(4-Chlorophenylsulfonyl)(2,5-difluorophenyl)methyl]-5-fluoropyridin-2-yl]propionic acid] yielded a melting point of 89 to 91 °C and an IC50 [1] of 50 to 500 nM.

For `O=S(=O)(c1ccc(Cl)cc1)C(c1cc(F)ccc1F)c1cc(NS(=O)(=O)N2CCCCC2)ncc1Cl` (stereo not drawn) [Example 270, N-[5-Chloro-4-[(4-chlorophenylsulfonyl)(2,5-difluorophenyl)methyl]pyridin-2-yl]piperidine-1-sulfonamide], the melting point was 192 to 194 °C and the IC50 [1] was 5 to 50 nM.
